Results from patent US11110088B2, “Imidazopyrazine inhibitors of Bruton's tyrosine kinase” (Acerta Pharma B.V., priority 2015, dated 2021).
pEC50, pIC50: −log10 of the molar value.

Assays:
[1] = test system: CD69 in CD19+ B cells of anti-IgM stimulated PBMCs; assay: Human peripheral blood mononuclear cell (PBMC) CD69 assay; assay type: cell-based; settings: 2 h compound, then anti-IgM 18 hours
Protocol: Example 44—Human Peripheral Blood Mononuclear Cell (PBMC) CD69 Assay
Whole blood was collected in heparin-coated Vacutainer tubes (BD Biosciences, San Jose, Calif.) and used for isolation of PBMCs using Ficoll-Hypaque (Pharmacia, Uppsala, Sweden). Isolated PBMCs were cryopreserved in 90% FCS/10% DMSO until later use.
Cells from cryogenic storage were thawed in a 37° C. water bath, diluted with RPMI/1% FCS, washed 2 times, and then plated at 1×10^5 cells per well in RPMI/10% FCS.
Serial dilutions log 10 from 10 mM to 316 nM of test compounds are made in 100% DMSO, followed by a 100-fold dilution into RPMI/1% FCS. For each well, 10 μL was then transferred to the deep well plate containing 90 μL of PBMC cells. Final compound concentration range in the assay ranged from 10 μM to 0.316 nM, with a final DMSO concentration of 0.1%. PBMCs are then incubated for 2 h at 37° C. in presence or absence of test compounds, prior to stimulation with goat F(ab′)2 anti-IgM (Southern Biotech, #2022-14, final concentration in assay 5 μg/mL) for 18 hours.
Following stimulation with anti-IgM, PBMCs were incubated on ice for 30 min with anti-CD69-FITC, anti-CD19-BV421 (BD Biosciences #555530 and #562440, respectively) and 7AAD (Life Technologies #A1310). Flow cytometry was performed and fluorescence values were obtained from the CD69-FITC channel in CD19+ gated life B cells. ECso values are determined by curve fitting of the experimental results using GraphPad Prism.

[2] = biological target: EGFR WT (Homo sapiens (Human), UniProt P00533); assay: EGFR enzyme activity, IMAP assay; assay type: biochemical; settings: 60 min pre-incubation; 2 μM ATP
Protocol: EGFR enzyme activity is measured using the IMAP (immobilized metal ion affinity-based fluorescence polarization) assay as outlined below.
EGFR enzyme (Invitrogen catalog #PR7295B), is diluted to 2.5 μg/mL in KR buffer (10 mM Tris-HCl, 10 mM MgCl2, 0.01% Tween-20, 0.1% NaN3, 1 mM DTT, 2 mM MnCl2, pH 7.5).
Final peptide substrate concentration in assay is 50 nM. […] Following incubation for 60 min at room temperature in the dark the enzyme reaction is stopped by adding 40 μL/well IMAP Progressive Binding Solution (according to suppliers (Molecular Devices) protocol using 20% 1× buffer A and 80% 1× buffer B with 600× diluted beads). After 60 min incubation at room temperature in the dark the FP signal is read. […] Values are calculated as percentage of the difference in readout (ΔmPi) of the controls with and without ATP. IC50 values are determined by curve fitting of the experimental results using GraphPad Prism6.

[3] = biological target: Txk (Homo sapiens (Human), UniProt P42681); assay: TXK enzyme activity, IMAP assay; assay type: biochemical; settings: 60 min pre-incubation; 1 μM ATP
Protocol: TXK enzyme activity is measured using the IMAP (immobilized metal ion affinity-based fluorescence polarization) assay as outlined below.
TXK enzyme (Millipore #14-761), is diluted to 2.5 U/mL in KR buffer (10 mM Tris-HCl, 10 mM MgCl2, 0.01% Tween-20, 0.1% NaN3, 1 mM DTT, 2 mM MnCl2, pH 7.5).
(§1) Serial dilutions log 10 from 2 mM to 63.2 nM of test compounds are made in 100% DMSO. The dilutions in DMSO are then diluted 50-fold in KR-buffer. Final compound concentration range in the assay ranged from 10 μM to 0.316 nM.
The assay is performed as follows: 5 μL/well of test compound in KR buffer (final DMSO concentration in the assay is 1%) is mixed with 5 μL/well of 2.5 U/mL TXK enzyme (final concentration in the assay is 0.625 U/mL (4.4 nM)). Test compounds and TXK enzyme are pre-incubated 60 minutes at room temperature, before adding 5 μL/well of 200 nM Fluorescin labeled substrate peptide (Blk/Lyntide substrate #R7188, Molecular Devices) in KR-buffer. Final peptide substrate concentration in assay is 50 nM. […] Following incubation for 2 hours at room temperature the enzyme reaction is stopped by adding 40 μL/well IMAP Progressive Binding Solution (according to suppliers (Molecular Devices) protocol using 60% 1× buffer A and 40% 1× buffer B with 800× diluted beads (Progressive Binding System, Molecular Devices). After 60 min incubation at room temperature in the dark the FP signal is read. Fluorescence at 535 nm is measured using parallel and perpendicular filters to determine differences in rotation due to binding of the phosphorylated substrate peptide to the beads. Values are calculated as percentage of the difference in readout (ΔmPi) of the controls with and without ATP. IC50 values are determined by curve fitting of the experimental results using Activity Base.

[4] = biological target: Bmx (Homo sapiens (Human), UniProt P51813); assay: BMX enzyme activity, IMAP assay; assay type: biochemical; settings: 60 min pre-incubation; 5 μM ATP
Protocol: BMX enzyme activity is measured using the IMAP (immobilized metal ion affinity-based fluorescence polarization) assay as outlined below.
(§2) The dilutions in DMSO are then diluted 50-fold in KR-buffer.
Test compounds and BMX enzyme are pre-incubated 60 minutes at room temperature, before adding 5 μL/well of 200 nM Fluorescin labeled substrate peptide (Blk/Lyntide substrate #R7188, Molecular Devices) in KR-buffer. Final peptide substrate concentration in assay is 50 nM. […] IC50 values are determined by curve fitting of the experimental results using Activity Base.

[5] = biological target: BTK (Homo sapiens (Human), UniProt Q06187); assay: BTK enzyme activity, IMAP assay; assay type: biochemical; settings: 60 min pre-incubation; 5 μM ATP
Protocol: BTK enzyme activity is measured using the IMAP (immobilized metal ion affinity-based fluorescence polarization) assay as outlined below.
BTK enzyme (His-BTK (Millipore catalog #14-552)), is diluted to 0.4 U/mL in KR buffer (10 mM Tris-HCl, 10 mM MgCl2, 0.01% Tween-20, 0.05% NaN3, 1 mM DTT, 2 mM MnCl2, pH 7.2).
as §1
The assay is performed as follows: 5 μL/well of test compound in KR buffer (final DMSO concentration in the assay is 1%) is mixed with 5 µl/well of 0.4 U/mL BTK enzyme (final concentration in the assay is 0.1 U/mL). Test compounds and BTK enzyme are pre-incubated 60 minutes at room temperature, before adding 5 μL/well of 200 nM Fluorescin labeled substrate peptide (Blk/Lyntide substrate, e.g. #R7188/#R7233, Molecular Devices) in KR-buffer. Final peptide substrate concentration in assay is 50 nM. […] Following incubation for 2 hours at room temperature the enzyme reaction is stopped by adding 40 μL/well IMAP Progressive Binding Solution (according to suppliers (Molecular Devices) protocol using 75% 1× buffer A and 25% 1× buffer B with 1:600 Progressive Binding Solution). After 60 min incubation at room temperature in the dark the FP signal is read. Fluorescence at 535 nm is measured using parallel and perpendicular filters to determine differences in rotation due to binding of the phosphorylated substrate peptide to the beads. Values are calculated as percentage of the difference in readout (ΔmPi) of the controls with and without ATP. IC50 values are determined by curve fitting of the experimental results using Activity Base.

[6] = biological target: ITK (Homo sapiens (Human), UniProt Q08881); assay: ITK enzyme activity, IMAP assay; assay type: biochemical; settings: 60 min pre-incubation; 5 μM ATP
Protocol: ITK enzyme activity is measured using the IMAP (immobilized metal ion affinity-based fluorescence polarization) assay as outlined below.
ITK enzyme (Millipore #14-660M) is diluted to 0.2 U/mL in KR buffer (10 mM Tris-HCl, 10 mM MgCl2, 0.01% Tween-20, 0.1% NaN3, 1 mM DTT, 2 mM MnCl2, pH 7.5)
as §2
Test compounds and ITK enzyme are pre-incubated 60 minutes at room temperature, before adding 5 μL/well of 200 nM Fluorescin labeled substrate peptide (Blk/Lyntide substrate #R8124, Molecular Devices) in KR-buffer. Final peptide substrate concentration in assay is 50 nM. […] IC50 values are determined by curve fitting of the experimental results using Activity Base.

Sequence of ITK (Q08881 whole entry): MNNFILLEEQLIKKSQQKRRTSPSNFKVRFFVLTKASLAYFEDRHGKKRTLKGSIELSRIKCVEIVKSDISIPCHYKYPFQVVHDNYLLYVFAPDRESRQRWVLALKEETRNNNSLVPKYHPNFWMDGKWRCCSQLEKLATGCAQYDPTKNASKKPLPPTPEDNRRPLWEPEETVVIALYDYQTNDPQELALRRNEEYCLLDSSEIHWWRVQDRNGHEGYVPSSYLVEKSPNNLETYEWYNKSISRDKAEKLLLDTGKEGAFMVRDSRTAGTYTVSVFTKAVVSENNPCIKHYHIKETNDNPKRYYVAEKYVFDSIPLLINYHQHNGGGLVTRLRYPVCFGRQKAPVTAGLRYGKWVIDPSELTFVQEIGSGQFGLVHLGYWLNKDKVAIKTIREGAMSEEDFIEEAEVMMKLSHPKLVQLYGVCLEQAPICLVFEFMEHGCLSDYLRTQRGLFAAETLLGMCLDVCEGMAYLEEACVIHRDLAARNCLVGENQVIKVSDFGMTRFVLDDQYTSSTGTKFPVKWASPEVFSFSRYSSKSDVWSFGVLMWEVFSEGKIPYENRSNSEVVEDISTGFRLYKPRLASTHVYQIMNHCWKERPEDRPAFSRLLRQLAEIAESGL
Sequence of Bmx (P51813 whole entry): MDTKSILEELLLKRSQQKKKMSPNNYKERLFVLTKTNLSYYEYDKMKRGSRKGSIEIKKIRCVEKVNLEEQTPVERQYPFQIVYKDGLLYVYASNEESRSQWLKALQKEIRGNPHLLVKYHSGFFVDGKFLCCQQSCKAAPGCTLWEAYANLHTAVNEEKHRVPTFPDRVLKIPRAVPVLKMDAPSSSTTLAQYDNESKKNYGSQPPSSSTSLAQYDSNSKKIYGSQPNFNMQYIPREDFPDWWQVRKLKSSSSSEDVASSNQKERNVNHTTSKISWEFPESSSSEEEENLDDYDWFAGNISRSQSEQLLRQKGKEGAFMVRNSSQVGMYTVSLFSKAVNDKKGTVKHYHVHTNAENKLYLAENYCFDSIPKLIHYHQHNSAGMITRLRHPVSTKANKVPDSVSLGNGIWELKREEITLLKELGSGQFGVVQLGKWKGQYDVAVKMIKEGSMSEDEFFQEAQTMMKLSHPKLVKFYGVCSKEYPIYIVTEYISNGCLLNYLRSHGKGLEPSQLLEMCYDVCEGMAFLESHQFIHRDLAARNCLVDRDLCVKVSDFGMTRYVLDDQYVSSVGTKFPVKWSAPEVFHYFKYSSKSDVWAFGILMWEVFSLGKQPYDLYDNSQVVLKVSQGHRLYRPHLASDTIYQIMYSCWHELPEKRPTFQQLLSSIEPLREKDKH
Sequence of Txk (P42681 whole entry): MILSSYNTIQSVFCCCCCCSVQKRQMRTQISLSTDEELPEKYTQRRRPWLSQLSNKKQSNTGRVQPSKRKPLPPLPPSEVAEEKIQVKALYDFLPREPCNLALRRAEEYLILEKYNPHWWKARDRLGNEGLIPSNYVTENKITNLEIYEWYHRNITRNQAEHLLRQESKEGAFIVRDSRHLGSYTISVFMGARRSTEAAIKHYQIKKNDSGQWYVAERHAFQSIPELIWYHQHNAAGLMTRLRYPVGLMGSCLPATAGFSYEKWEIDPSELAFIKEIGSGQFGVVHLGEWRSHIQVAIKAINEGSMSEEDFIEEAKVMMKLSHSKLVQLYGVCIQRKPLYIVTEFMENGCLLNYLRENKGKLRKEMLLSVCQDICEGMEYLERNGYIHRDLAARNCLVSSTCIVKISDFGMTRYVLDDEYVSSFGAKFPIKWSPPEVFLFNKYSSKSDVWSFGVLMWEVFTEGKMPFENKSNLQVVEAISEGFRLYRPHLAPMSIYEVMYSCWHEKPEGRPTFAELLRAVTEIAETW
Sequence of EGFR WT (P00533 25-1210): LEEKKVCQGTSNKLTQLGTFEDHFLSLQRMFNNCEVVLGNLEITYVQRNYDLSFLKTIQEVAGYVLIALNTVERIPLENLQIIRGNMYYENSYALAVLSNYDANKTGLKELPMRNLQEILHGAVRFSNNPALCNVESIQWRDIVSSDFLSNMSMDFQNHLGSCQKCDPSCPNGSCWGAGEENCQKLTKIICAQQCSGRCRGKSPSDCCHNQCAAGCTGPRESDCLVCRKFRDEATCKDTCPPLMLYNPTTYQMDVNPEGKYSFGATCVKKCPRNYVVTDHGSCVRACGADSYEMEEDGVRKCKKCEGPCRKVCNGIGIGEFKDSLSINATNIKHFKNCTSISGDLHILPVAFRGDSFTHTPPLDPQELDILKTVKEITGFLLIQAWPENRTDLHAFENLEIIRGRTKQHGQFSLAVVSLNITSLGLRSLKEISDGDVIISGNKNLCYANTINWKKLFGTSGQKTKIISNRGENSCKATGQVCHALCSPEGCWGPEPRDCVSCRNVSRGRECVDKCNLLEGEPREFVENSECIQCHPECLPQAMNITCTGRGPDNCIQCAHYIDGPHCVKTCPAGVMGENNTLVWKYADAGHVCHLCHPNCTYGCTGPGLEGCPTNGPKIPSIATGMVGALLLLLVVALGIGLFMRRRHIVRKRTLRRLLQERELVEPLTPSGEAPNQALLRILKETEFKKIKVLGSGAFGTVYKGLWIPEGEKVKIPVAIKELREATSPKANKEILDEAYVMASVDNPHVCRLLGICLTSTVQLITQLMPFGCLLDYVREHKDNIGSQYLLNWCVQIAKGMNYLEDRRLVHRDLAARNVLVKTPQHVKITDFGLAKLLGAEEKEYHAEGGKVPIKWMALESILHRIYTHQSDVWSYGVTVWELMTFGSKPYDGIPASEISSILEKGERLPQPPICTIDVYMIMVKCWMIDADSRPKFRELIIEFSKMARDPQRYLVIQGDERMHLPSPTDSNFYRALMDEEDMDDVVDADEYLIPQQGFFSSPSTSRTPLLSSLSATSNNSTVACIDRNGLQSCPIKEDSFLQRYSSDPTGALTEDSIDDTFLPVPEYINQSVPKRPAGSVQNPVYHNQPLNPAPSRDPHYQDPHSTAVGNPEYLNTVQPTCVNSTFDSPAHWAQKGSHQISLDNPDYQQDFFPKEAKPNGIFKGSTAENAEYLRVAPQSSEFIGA
Sequence of BTK (Q06187 whole entry): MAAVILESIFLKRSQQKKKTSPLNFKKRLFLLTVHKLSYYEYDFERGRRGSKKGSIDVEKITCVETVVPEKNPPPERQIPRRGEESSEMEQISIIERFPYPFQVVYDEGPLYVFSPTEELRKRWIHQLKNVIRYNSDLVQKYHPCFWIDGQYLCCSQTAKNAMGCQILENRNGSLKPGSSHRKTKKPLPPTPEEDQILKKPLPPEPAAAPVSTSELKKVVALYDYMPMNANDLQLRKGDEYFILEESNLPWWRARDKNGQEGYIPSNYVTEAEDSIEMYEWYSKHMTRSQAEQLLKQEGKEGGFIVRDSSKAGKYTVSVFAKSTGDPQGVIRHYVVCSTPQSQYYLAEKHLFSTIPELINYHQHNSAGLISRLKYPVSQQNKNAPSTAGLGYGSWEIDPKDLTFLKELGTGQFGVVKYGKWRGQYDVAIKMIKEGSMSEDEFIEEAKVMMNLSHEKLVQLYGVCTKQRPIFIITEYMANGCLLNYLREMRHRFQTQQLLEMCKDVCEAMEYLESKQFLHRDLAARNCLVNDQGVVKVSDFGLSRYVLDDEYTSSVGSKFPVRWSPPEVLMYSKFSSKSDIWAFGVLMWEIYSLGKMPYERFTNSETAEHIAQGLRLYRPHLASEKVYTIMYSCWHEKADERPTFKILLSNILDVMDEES

Row | Compound | pEC50 ([1]; Homo sapiens, PBMC) | pIC50 [2] | pIC50 [3] | pIC50 [4] | pIC50 [5] | pIC50 [6] | pEC50 [1] | pEC50 ([1]; PBMC)
1 | CC#CC(=O)N(C)[C@@H](C)c1nc(-c2ccc(C(=O)Nc3ccc(C)cn3)cc2)c2c(N)nccn12 | 8.77 | 6.45 | 8.41 | 8.35 | 8.74 | 6.60 |  | 
2 | COC/C=C/C(=O)N(C)[C@@H](C)c1nc(-c2ccc(C(=O)Nc3ccc(C)cn3)cc2)c2c(N)nccn12 | 8.46 |  | 7.85 | 7.82 | 7.96 |  |  | 
3 | CC#CC(=O)N1CCC[C@H]1c1nc(-c2ccc(C(=O)Nc3nccs3)c(OC)c2)c2c(N)nccn12 | 7.96 | < 6.00 | 8.15 | 7.92 | 8.41 | < 6.00 |  | 
4 | CC#CC(=O)N[C@@H](C)c1nc(-c2ccc(C(=O)Nc3cc(C(F)(F)F)ccn3)c(OC)c2)c2c(N)nccn12 | 8.85 | < 6.00 | 8.33 | 8.46 | 8.66 | < 6.00 |  | 
5 | CC#CC(=O)N(C)[C@@H](C)c1nc(-c2ccc(C(=O)Nc3ccc(C)cn3)c(OC)c2)c2c(N)nccn12 [drawing 83] | 8.43 |  | 7.92 | 7.80 | 8.38 |  |  | 
6 | CC#CC(=O)N[C@@H](C)c1nc(-c2ccc(C(=O)Nc3ccccn3)c(OC)c2)c2c(N)nccn12 | 8.89 | < 6.00 | 8.70 | 8.51 | 8.80 | < 6.00 |  | 
7 | COC/C=C/C(=O)N[C@@H](C)c1nc(-c2ccc(C(=O)Nc3ccc(C)cn3)c(OC)c2)c2c(N)nccn12 | 8.72 | < 6.00 | 8.57 | 8.52 | 8.41 | < 6.00 |  | 
8 | CC#CC(=O)N1CCC[C@H]1c1nc(-c2ccc(C(=O)Nc3ccc(C)cn3)c(OC)c2)c2c(N)nccn12 | 8.28 | < 6.00 | 7.96 | 7.96 | 8.17 | < 6.00 |  | 
9 | CC#CC(=O)N[C@@H](C)c1nc(-c2ccc(C(=O)Nc3cc(C(F)(F)F)ccn3)cc2)c2c(N)nccn12 | 9.15 | 6.49 | 8.74 | 8.72 | 8.74 | 6.92 |  | 
10 | CC#CC(=O)N(C)[C@@H](C)c1nc(-c2ccc(C(=O)Nc3cc(C(F)(F)F)ccn3)c(OC)c2)c2c(N)nccn12 | 8.57 | < 6.00 | 7.89 | 8.10 | 8.46 | < 6.00 |  | 
11 | CC#CC(=O)N(C)[C@@H](C)c1nc(-c2ccc(C(=O)Nc3ccccn3)c(OC)c2)c2c(N)nccn12 | 8.62 | < 6.00 | 8.52 | 8.38 | 8.70 | < 6.00 |  | 
12 | CC#CC(=O)N[C@@H](C)c1nc(-c2ccc(C(=O)Nc3ccc(C)cn3)cc2)c2c(N)nccn12 | 9.00 |  | 8.68 | 8.54 | 8.80 | 6.54 |  | 
13 | COC/C=C/C(=O)N[C@@H](C)c1nc(-c2ccc(C(=O)Nc3ccc(C)cn3)cc2)c2c(N)nccn12 | 8.38 | 6.44 | 8.82 | 8.54 | 8.62 | 6.32 |  | 
14 | CC#CC(=O)N(C)[C@@H](C)c1nc(-c2ccc(C(=O)Nc3ccc(C)cn3)c(OC)c2)c2c(N)nccn12 [drawing 89] |  |  | 8.29 | 8.17 | 8.29 |  | 8.29 | 
15 | CC#CC(=O)N1CCC[C@H]1c1nc(-c2ccc(C(=O)Nc3cscn3)cc2)c2c(N)nccn12 |  |  | 7.47 |  | 8.20 | < 6.00 |  | 8.02
